Our source for the melting point values is US7179824B2, “Arthropodicidal anthranilamides” (E. I. du Pont de Nemours and Company, priority 2001, dated 2007).

`Cc1cc(Cl)cc(C(=O)NC(C)C)c1N(C(=O)c1cc(C(F)(F)F)n[nH]1)c1ncccc1Cl` [Compound 4, N-[4-chloro-2-methyl-6-[[(1-methylethyl)amino]carbonyl]phenyl]-N-(3-chloro-2-pyridinyl)-3-(trifluoromethyl)-1H-pyrazole-5-carboxamide] returned a melting point of 173 to 176 °C.

One may read the melting point as the temperature of the solid-liquid transition.
